“Also recorded” adds a separate entry of the source.
Columns and labels:
[1] = target: T1, recombinant α-syn fibrils (Homo sapiens, UniProt P37840); test: Competition binding assay against [^3H]DCVJ, α-syn fibrils; conditions: for Selectivity Aβ/α-syn / Selectivity tau/α-syn: ratio of Ki, [^3H]DCVJ was used; for Ki: [^3H]DCVJ was used (10 nM), α-synuclein aggregates 125 nM
T1 construct: made in house
Description: The incubation of purified recombinant α-synuclein monomer (10 mg/mL) obtained as described by Uzuegbunam was carried out in PBS (pH 7.4) at 37 °C. The solution was left shaking at 900 rpm in an Eppendorf Thermomixer for up to 84 h. Determination of the concentration of the formed fibrils (α-syn) was carried out following the centrifugation of the reaction vial at 12,000× g for 5 min. The pellet obtained was washed thrice with 20 mM of Tris-HCl, pH 7.4. The supernatants from the three centrifugation steps were combined, and the concentration of the monomer in the resulting supernatant was determined in a BCA assay (Thermo Fisher Scientific, Waltham, MA, USA) (with a BSA standard curve). Determination of the concentration of α-syn was carried out by subtracting the amount of α-synuclein monomer in the supernatant from the initial amount used for fibrillation.
(§1) The pellets of the fibrils obtained above (Section 4.2.1) were resuspended in 20 mM of Tris-HCl, pH 7.4 and diluted as needed for the binding assays.
(§2) A fixed concentration of [^3H]DCVJ (10 nM) and α-synuclein aggregates (125 nM), prepared as described above (Section 4.2.3), was used with different final concentrations of the DABTAs from 0.01 to 100 nM (see SI Figure S1). The experiment was carried out in quintuplicate for each concentration. The mixture was incubated for 2 h in a final volume of 200 μL per well after dilution with 20 mM of Tris-HCl, pH 7.4. The incubated mixtures were filtered through a Perkin Elmer GF/B glass filter via a TOMTEC cell harvester and immediately washed thrice with 1 mL of deionized water. The filters containing the bound ligands were dried and afterwards mixed with 3 mL of BetaPlate Scint solution (Perkin Elmer Life Sciences, Waltham, MA, USA) and left there for 2 h before counting in a Wallac 1450 MicroBeta TriLux Liquid Scintillation Counter (PerkinElmer Life Sciences, Waltham, MA, USA). For the determination of the inhibition constants, data were analyzed using GraphPad Prism software (version 7.0) to obtain IC50 values by fitting the data to the equation Y = bottom + (top − bottom)/(1 + 10(x − log IC50)). Ki values were calculated from IC50 values using the equation Ki = IC50/(1 + [radioligand]/Kd). […] Further protocol was carried out as for [^3H]DCVJ (see SI Figure S3).

Aβ1−42 fibrils = target: T2, Aβ1−42 fibrils (Homo sapiens, UniProt P05067); test: Competition binding assay against [^3H]PiB, Aβ1−42 fibrils; conditions: read-out: Ki Aβ
T2 construct: 1 mg of β-amyloid1–42 peptide (Abcam, Cambridge, UK); purchased Abcam
Description: After the dissolution of 1 mg of β-amyloid1–42 peptide (Abcam, Cambridge, UK) in 50 μL of DMSO, 925 μL of Milli-Q® water was added to it, and the mixture was stirred. Finally, 25 μL of 1M Tris HCl, pH 7.4 was added to bring the final peptide concentration to 1 mg/mL. The mixture was then left to incubate at 37 °C for 30 h with shaking at 900 rpm. To separate the non-aggregated monomers from the formed fibrils, the reaction mixture was centrifuged at 12,000× g for 5 min, and the resulting pellet was washed three times with 500 μL of 20 mM Tris-HCl, pH 7.4. The supernatants from the three centrifugation steps were combined, and the concentration of the monomer in the resulting supernatant was determined in a BCA assay (Thermo Fisher Scientific, Waltham, MA, USA) (with a BSA standard curve). Determination of the concentration of fibrils formed was carried out by subtracting the amount of β-amyloid1−42 peptide monomer in the supernatant from the initial amount used for fibrillation.
as §1, §2
Further procedures followed the same already described in Section 4.2.3.1 (See SI Figure S4).

tau fibrils = tau fibrils (Homo sapiens, UniProt P10636); test: Competition binding assay against [^3H]PiB, tau fibrils
Description: as §2, with “Recombinant tau monomer (R&D systems, Minneapolis, MN, USA) was dissolved in 20 mM of Tris HCl, pH 8.0, 100 mM of NaCl, 25 μM of low-MW heparin, and 0.5 mM of dithiothreitol to a final concentration of 300 µg/mL. The mixture was incubated with shaking at 900 rpm at 37 °C for 48 h. To separate the non-aggregated monomers from the formed fibrils, the reaction mixture was centrifuged at 12,000× g for 5 min, and the resulting pellet was washed three times with 500 μL of 20 mM Tris-HCl, pH 7.4. The supernatants from the three centrifugation steps were combined, and the concentration of the monomer in the resulting supernatant was determined in a BCA assay(Thermo Fisher Scientific, Waltham, MA, USA) (with a BSA standard curve). Determination of the concentration of fibrils formed was carried out by subtracting the amount of tau peptide monomer in the supernatant from the initial amount used for fibrillation. The pellets of the fibrils obtained above (Section 4.2.1) were resuspended in 20 mM of Tris-HCl, pH 7.4 and diluted as needed for the binding assays. A fixed” for “A fixed”, “Figure S3). […] Further procedures followed the same already described in Section 4.2.3.1 (See SI Figure S4).” for “Figure S3).”

[2] = target: T1, recombinant α-syn fibrils; test: Competition binding assay against [^3H]PiB, α-syn fibrils; conditions: for Selectivity Aβ/α-syn / Selectivity tau/α-syn: ratio of Ki, [^3H]PiB was used
[3] = Solubility in the incubation medium of the binding assays; assay type: physicochemical; conditions: incubation buffer of the binding assays

T2 sequence (P05067 672-713): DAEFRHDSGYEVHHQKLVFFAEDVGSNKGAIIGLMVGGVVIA
tau fibrils, sequence (P10636 2-758): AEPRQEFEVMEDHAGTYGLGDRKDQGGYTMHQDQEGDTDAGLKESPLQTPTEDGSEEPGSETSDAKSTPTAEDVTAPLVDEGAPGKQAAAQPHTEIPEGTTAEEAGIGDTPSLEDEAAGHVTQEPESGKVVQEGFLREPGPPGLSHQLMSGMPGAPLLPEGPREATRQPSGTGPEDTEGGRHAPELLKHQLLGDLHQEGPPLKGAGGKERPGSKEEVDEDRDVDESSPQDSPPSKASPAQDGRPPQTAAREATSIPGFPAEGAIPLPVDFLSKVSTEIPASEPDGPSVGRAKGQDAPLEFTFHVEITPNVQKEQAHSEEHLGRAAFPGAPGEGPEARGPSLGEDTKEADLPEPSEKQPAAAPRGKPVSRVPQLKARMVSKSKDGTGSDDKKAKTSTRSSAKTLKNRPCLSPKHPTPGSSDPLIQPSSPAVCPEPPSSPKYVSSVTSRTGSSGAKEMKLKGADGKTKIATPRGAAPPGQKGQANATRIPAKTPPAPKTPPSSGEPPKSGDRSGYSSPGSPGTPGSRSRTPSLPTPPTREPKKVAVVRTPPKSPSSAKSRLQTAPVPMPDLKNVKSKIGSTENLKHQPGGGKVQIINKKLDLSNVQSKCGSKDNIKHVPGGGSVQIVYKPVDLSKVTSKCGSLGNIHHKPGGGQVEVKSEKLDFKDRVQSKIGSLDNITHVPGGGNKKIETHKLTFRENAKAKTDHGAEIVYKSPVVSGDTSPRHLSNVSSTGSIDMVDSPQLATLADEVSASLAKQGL

Selectivity Aβ/α-syn [1]	Selectivity tau/α-syn [1]	Ki (Aβ1−42 fibrils) [nM]	Ki (tau fibrils) [nM]	Ki [2] [nM]	Selectivity Aβ/α-syn [2]	Selectivity tau/α-syn [2]	Ki [1] [nM]	Structure (SMILES)	solubility in the incubation medium [3]
417.1	>1515.2	87.4	364	2.56	34.1	142.2		COc1ccc(-c2csc(-c3nc(-c4cnc5c(c4)OCO5)cs3)n2)cc1F [d4, 6-(4′-(3-Fluoro-4-methoxyphenyl)-[2,2′-bithiazol]-4-yl)-[1,3]dioxolo[4,5-b]pyridine]	
		38.7	983	0.92	42.1	1068.5		FCCOCCOCCOc1ccc(-c2csc(-c3nc(-c4cnc5c(c4)OCO5)cs3)n2)cc1 [f12, 6-(4′-(4-(2-(2-(2-Fluoroethoxy)ethoxy)ethoxy)phenyl)-[2,2′-bithiazol]-4-yl)-[1,3]dioxolo[4,5-b]pyridine]	
		167	513	1.78	94.1	288.0		COc1ccc(-c2csc(-c3nc(-c4cnc5c(c4)OCO5)cs3)n2)cc1 [f17, 6-(4′-(4-Methoxyphenyl)-[2,2′-bithiazol]-4-yl)-[1,3]dioxolo[4,5-b]pyridine]	
		221	815	1.31	168.9	621.8		FCCOCCOc1ccc(-c2csc(-c3nc(-c4cnc5c(c4)OCO5)cs3)n2)c(OCCOCCF)c1 [f20, 6-(4′-(2,4-Bis(2-(2-fluoroethoxy)ethoxy)phenyl)-[2,2′-bithiazol]-4-yl)-[1,3]dioxolo[4,5-b]pyridine]	
		37.3	615	0.93	40.1		1	FCCOCCOCCOc1ccc(-c2csc(-c3nc(-c4cnc5c(c4)OCO5)cs3)n2)cc1F [f10, 6-(4′-(3-Fluoro-4-(2-(2-(2-fluoroethoxy)ethoxy)ethoxy)phenyl)-[2,2′-bithiazol]-4-yl)-[1,3]dioxolo[4,5-b]pyridine]	
		99.6	499	3.71	26.9			FCCOc1ccc(-c2csc(-c3nc(-c4ccc5c(c4)OCO5)cs3)n2)cc1 [f11, 4-(Benzo[d][1,3]dioxol-5-yl)-4′-(4-(2-fluoroethoxy)phenyl)-2,2′-bithiazole]	
		47.6	1130	0.96	49.6	1177.1	0.84	COc1ccc(-c2csc(-c3nc(-c4cnc5c(c4)OCO5)cs3)n2)cc1OCCOCCF [f9, 6-(4′-(3-(2-(2-Fluoroethoxy)ethoxy)-4-methoxyphenyl)-[2,2′-bithiazol]-4-yl)-[1,3]dioxolo [4,5-b]pyridine]	
		76.4	242	1.17	65.3	206.9	1.51	FCCOCCOCCOc1cnc(-c2csc(-c3nc(-c4ccc5c(c4)OCO5)cs3)n2)nc1 [f7, 4-(Benzo[d][1,3]dioxol-5-yl)-4′-(5-(2-(2-(2-fluoroethoxy)ethoxy)ethoxy)pyrimidin-2-yl)-2,2′-bithiazole]	
		46.6	120	0.38	122.6	315.8		FCCOCCOCCOc1cnc(-c2csc(-c3nc(-c4cnc5c(c4)OCO5)cs3)n2)nc1 [f13, 6-(4′-(5-(2-(2-(2-Fluoroethoxy)ethoxy)ethoxy)pyrimidin-2-yl)-[2,2′-bithiazol]-4-yl)-[1,3]dioxolo[4,5-b]pyridine]	
		59.3	707	2.45	24.2	288.6		COc1cnc(-c2csc(-c3nc(-c4ccc5c(c4)OCO5)cs3)n2)nc1 [f15, 4-(Benzo[d][1,3]dioxol-5-yl)-4′-(5-methoxypyrimidin-2-yl)-2,2′-bithiazole]	
				1.17				ICCOCCOCCOc1cnc(-c2csc(-c3nc(-c4cnc5c(c4)OCO5)cs3)n2)nc1 [h13, 6-(4′-(5-(2-(2-(2-Iodoethoxy)ethoxy)ethoxy)pyrimidin-2-yl)-[2,2′-bithiazol]-4-yl)-[1,3]dioxolo[4,5-b]pyridine]	low solubility; also recorded: decreased solubility
		210	662	1.74	120.8	380.6		COc1ccc(-c2csc(-c3nc(-c4ccc5c(c4)OCO5)cs3)n2)cc1OCCOCCOCCF [f14, 4-(Benzo[d][1,3]dioxol-5-yl)-4′-(3-(2-(2-(2-fluoroethoxy)ethoxy)ethoxy)-4-methoxyphenyl)-2,2′-bithiazole]	
		149	671	1.35	110.1	497.3		COc1ccc(-c2csc(-c3nc(-c4cnc5c(c4)OCO5)cs3)n2)c(OC)c1 [f19, 6-(4′-(2,4-Dimethoxyphenyl)-[2,2′-bithiazol]-4-yl)-[1,3]dioxolo[4,5-b]pyridine]	
				4.99				COc1ccc(-c2csc(-c3nc(-c4cnc5c(c4)OCO5)cs3)n2)cc1OC [f18, 6-(4′-(3,4-Dimethoxyphenyl)-[2,2′-bithiazol]-4-yl)-[1,3]dioxolo[4,5-b]pyridine]	low solubility; also recorded: decreased solubility
198.1	>819.7	147	681	2.32	63.4	293.4		COc1ccc(-c2csc(-c3nc(-c4ccc5c(c4)OCO5)cs3)n2)cc1F [d2, 4-(Benzo[d][1,3]dioxol-5-yl)-4′-(3-fluoro-4-methoxyphenyl)-2,2′-bithiazole]	

Reference: PMC10671360, “In Silico and In Vitro Study towards the Rational Design of 4,4′-Disarylbisthiazoles as a Selective α-Synucleinopathy Biomarker” (International Journal of Molecular Sciences, 2023)
